#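 Briefly, cells in 96-well plates were exposed to five compound concentrations for 48 h, and endpoints were estimated by linear interpolation. GI50: concentration for 50% inhibition of growth. At the TGI there is no net growth.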
# Key:
# Experiment in all cases: inhibition of tumour cell growth, NCI panel, 48 h
# A498 renal = test system: A498 renal
# A549 NSCLC = test system: A549 NSCLC
# HCT-116 colon = test system: HCT-116 colon
# HOP-92 NSCLC = test system: HOP-92 NSCLC
# NCI-H226 lung = test system: NCI-H226 lung
# NCI-H23 lung = test system: NCI-H23 lung
# SK-MEL-28 melanoma = test system: SK-MEL-28 melanoma
# TK-10 renal = test system: TK-10 renal
# U251 CNS = test system: U251 CNS
# UO-31 renal = test system: UO-31 renal
SMILES,GI50 (A498 renal) [µM],TGI (A498 renal) [µM],GI50 (A549 NSCLC) [µM],TGI (A549 NSCLC) [µM],GI50 (HCT-116 colon) [µM],TGI (HCT-116 colon) [µM],GI50 (HOP-92 NSCLC) [µM],TGI (HOP-92 NSCLC) [µM],GI50 (NCI-H226 lung) [µM],TGI (NCI-H226 lung) [µM],GI50 (NCI-H23 lung) [µM],TGI (NCI-H23 lung) [µM],GI50 (SK-MEL-28 melanoma) [µM],TGI (SK-MEL-28 melanoma) [µM],GI50 (TK-10 renal) [µM],TGI (TK-10 renal) [µM],GI50 (U251 CNS) [µM],TGI (U251 CNS) [µM],GI50 (UO-31 renal) [µM],TGI (UO-31 renal) [µM]
CC/C=C/[C@@H]1C=C[C@@H]2CCC[C@H]2[C@@H]1CC[C@H](O)[C@H](C)N,1.62,5.58,2.26,7.05,1.53,2.86,1.41,3.89,11.9,27.6,1.78,3.98,1.66,3.01,1.36,2.68,1.53,2.86,1.77,4.91
Cc1cc(Cl)n2c(nc3ccccc32)c1C#N,4.18,17.7,0.385,7.43,0.0393,1.4,0.494,1.62,1.54,10,0.422,2.55,1.4,6.34,0.898,10.9,0.482,3.17,0.333,1.68
COc1cc[c]([Hg][Cl])cc1,17.6,31.5,23.8,40.8,4.49,18.4,2.26,4.01,22.9,50.6,3.03,22.4,1.65,3.36,17.5,31.4,1.82,3.51,14.6,28.9
CCCCc1ccc2nc(NC(=O)OC)[nH]c2c1,0.04,0.996,0.0868,> 100,0.0482,13.5,0.697,> 63,0.0429,3.32,0.142,> 100,0.087,35.3,0.325,29.9,0.0533,19.4,12.1,> 100
COC(=O)C1Cc2c([nH]c3ccccc23)[C@H](CC(C)C)N1 (stereo not given in full),,> 100,,> 100,,> 100,,> 100,,> 100,,> 100,,> 100,,> 100,,> 100,,> 100
CC(=O)OCC1OC(n2cc(F)c(=O)[nH]c2=O)C(OC(C)=O)C1OC(C)=O (stereo not given),,> 100,,> 100,,71.8,,> 55.8,,> 100,,> 100,,> 100,,> 100,,> 95.5,,> 96.1
Cc1ncc(C(=O)Nc2ccc(CN3CCN(C)CC3)c(C(F)(F)F)c2)cc1C#Cc1c(N)ncc2ccc(C#N)cc12,1.21,4.55,2.82,14.4,0.24,5.94,0.075,1.25,0.451,2.3,0.936,8.58,0.0676,1.91,3.08,12.2,5.8,14.4,1.26,4.99
